From ChEMBL document CHEMBL6114965, “Novel dual-targeting PROTAC degraders of GSK-3β and CDK5: A promising approach for pancreatic cancer treatment” (Bioorg Med Chem, 2025)
Calls of active or inactive are those of the source. No cut-off for these calls is given here.

What was measured:
[1] = target: T1, Protein cereblon/Cyclin-dependent kinase 5 (Homo sapiens, UniProt Q00535+Q96SW2); assay: PROTAC activity at CRBN/CDK5 in human PANC-1 cells assessed as induction of CDK5 degradation by measuring maximal efficacy by target engagement binding based cell-ELISA relative to control
Target sequence in this assay (Q00535 whole entry, looked up): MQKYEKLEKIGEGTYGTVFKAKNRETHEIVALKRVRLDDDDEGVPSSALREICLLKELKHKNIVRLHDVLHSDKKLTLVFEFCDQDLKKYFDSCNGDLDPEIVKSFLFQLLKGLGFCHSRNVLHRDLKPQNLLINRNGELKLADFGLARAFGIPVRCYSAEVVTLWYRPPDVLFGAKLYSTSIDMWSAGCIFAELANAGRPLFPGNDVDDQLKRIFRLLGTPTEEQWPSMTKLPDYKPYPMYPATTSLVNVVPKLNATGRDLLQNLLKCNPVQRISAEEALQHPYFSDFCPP
Target sequence in this assay (Q96SW2 whole entry, looked up): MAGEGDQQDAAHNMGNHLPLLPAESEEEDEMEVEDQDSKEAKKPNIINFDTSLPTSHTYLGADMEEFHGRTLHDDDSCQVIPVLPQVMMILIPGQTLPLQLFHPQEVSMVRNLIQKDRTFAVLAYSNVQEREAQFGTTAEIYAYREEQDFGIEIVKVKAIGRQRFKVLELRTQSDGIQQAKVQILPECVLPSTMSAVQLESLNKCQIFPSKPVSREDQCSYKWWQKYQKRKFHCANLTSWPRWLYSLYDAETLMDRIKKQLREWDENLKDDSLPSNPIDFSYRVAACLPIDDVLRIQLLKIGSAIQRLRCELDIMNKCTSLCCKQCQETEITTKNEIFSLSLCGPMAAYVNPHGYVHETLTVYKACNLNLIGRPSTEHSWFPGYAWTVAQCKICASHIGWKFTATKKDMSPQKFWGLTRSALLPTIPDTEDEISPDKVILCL

[2] = target: T2, Protein cereblon/Glycogen synthase kinase-3 beta (Homo sapiens, UniProt P49841+Q96SW2); assay: PROTAC activity at CRBN/GSK3beta in human PANC-1 cells assessed as induction of GSK3beta degradation by target engagement binding based cell-ELISA
Target sequence in this assay (P49841 whole entry): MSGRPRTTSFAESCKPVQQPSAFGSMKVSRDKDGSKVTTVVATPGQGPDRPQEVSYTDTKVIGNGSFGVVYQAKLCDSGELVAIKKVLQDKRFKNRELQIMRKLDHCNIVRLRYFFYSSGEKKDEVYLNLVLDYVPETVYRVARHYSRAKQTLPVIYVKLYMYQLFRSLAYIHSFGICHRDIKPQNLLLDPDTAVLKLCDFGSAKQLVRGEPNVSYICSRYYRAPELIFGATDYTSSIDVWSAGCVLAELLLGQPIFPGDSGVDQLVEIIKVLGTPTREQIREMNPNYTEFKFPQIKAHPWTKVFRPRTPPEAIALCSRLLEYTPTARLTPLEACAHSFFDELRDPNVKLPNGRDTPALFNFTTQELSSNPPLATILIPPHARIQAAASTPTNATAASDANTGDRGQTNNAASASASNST
Target sequence in this assay (Q96SW2 whole entry): as the sequence (Q96SW2 whole entry, looked up) above

[3] = target: T1, Protein cereblon/Cyclin-dependent kinase 5; assay: PROTAC activity at CRBN/CDK5 in human PANC-1 cells assessed as induction of CDK5 degradation at 0.5 to 2.8 uM incubated for 10 hrs in presence of MG132 by Western blot analysis; format: cell-based; conditions: dose 0.5-2.8 µM
Target sequence in this assay (Q00535 whole entry, looked up): as the sequence (Q00535 whole entry, looked up) above
Target sequence in this assay (Q96SW2 whole entry, looked up): as the sequence (Q96SW2 whole entry, looked up) above

MIA PaCa-2 = assay: Antiproliferative activity against human MIA PaCa-2 cells assessed as inhibition of cell viability by MTT assay; format: functional, cell-based
BXPC-3 = assay: Antiproliferative activity against human BXPC-3 cells assessed as inhibition of cell viability by MTT assay; format: functional, cell-based
[4] = target: T2, Protein cereblon/Glycogen synthase kinase-3 beta; assay: PROTAC activity at CRBN/GSK3beta in human PANC-1 cells assessed as induction of GSK3beta degradation at 0.5 to 2.8 uM incubated for 10 hrs in presence of MG132 by Western blot analysis; format: cell-based; conditions: dose 0.5-2.8 µM
Target sequence in this assay (P49841 whole entry, looked up): as the sequence (P49841 whole entry) above
Target sequence in this assay (Q96SW2 whole entry, looked up): as the sequence (Q96SW2 whole entry, looked up) above

[5] = target: T1, Protein cereblon/Cyclin-dependent kinase 5; assay: PROTAC activity at CRBN/CDK5 in human PANC-1 cells assessed as induction of CDK5 degradation by target engagement binding based cell-ELISA
Target sequence in this assay (Q00535 whole entry): as the sequence (Q00535 whole entry, looked up) above
Target sequence in this assay (Q96SW2 whole entry): as the sequence (Q96SW2 whole entry, looked up) above

PANC-1 = assay: Antiproliferative activity against human PANC-1 cells assessed as inhibition of cell viability by MTT assay; format: functional, cell-based
[6] = target: T2, Protein cereblon/Glycogen synthase kinase-3 beta; assay: PROTAC activity at CRBN/GSK3beta in human PANC-1 cells assessed as induction of GSK3beta degradation by measuring maximal efficacy by target engagement binding based cell-ELISA relative to control
Target sequence in this assay (P49841 whole entry, looked up): as the sequence (P49841 whole entry) above
Target sequence in this assay (Q96SW2 whole entry, looked up): as the sequence (Q96SW2 whole entry, looked up) above

ASPC1 = assay: Antiproliferative activity against human ASPC1 cells assessed as inhibition of cell viability by MTT assay; format: functional, cell-based
[7] = target: T1, Protein cereblon/Cyclin-dependent kinase 5; assay: PROTAC activity at CRBN/CDK5 in human PANC-1 cells assessed as induction of CDK5 degradation at 1 to 2.8 uM incubated for 10 hrs by Western blot analysis; format: cell-based; conditions: dose 1-2.8 µM
Target sequence in this assay (Q00535 whole entry, looked up): as the sequence (Q00535 whole entry, looked up) above
Target sequence in this assay (Q96SW2 whole entry, looked up): as the sequence (Q96SW2 whole entry, looked up) above

[8] = Permeability of compound in PBS at pH 7.4 at 500 uM incubated for 4 hrs by UV spectrophotometry based PAMPA; format: ADME; conditions: read-out: permeability
[9] = target: T2, Protein cereblon/Glycogen synthase kinase-3 beta; assay: PROTAC activity at CRBN/GSK3beta in human PANC-1 cells assessed as induction of GSK3beta degradation at 1 to 2.8 uM incubated for 10 hrs by Western blot analysis; format: cell-based; conditions: dose 1-2.8 µM
Target sequence in this assay (P49841 whole entry, looked up): as the sequence (P49841 whole entry) above
Target sequence in this assay (Q96SW2 whole entry, looked up): as the sequence (Q96SW2 whole entry, looked up) above

Cytochrome P450 2B6 = target: T3, Cytochrome P450 2B6 (Homo sapiens, UniProt P20813); assay: Inhibition of CYP2B6 (unknown origin) using bupropion as substrate […]; format: ADME
T3 sequence (P20813 whole entry): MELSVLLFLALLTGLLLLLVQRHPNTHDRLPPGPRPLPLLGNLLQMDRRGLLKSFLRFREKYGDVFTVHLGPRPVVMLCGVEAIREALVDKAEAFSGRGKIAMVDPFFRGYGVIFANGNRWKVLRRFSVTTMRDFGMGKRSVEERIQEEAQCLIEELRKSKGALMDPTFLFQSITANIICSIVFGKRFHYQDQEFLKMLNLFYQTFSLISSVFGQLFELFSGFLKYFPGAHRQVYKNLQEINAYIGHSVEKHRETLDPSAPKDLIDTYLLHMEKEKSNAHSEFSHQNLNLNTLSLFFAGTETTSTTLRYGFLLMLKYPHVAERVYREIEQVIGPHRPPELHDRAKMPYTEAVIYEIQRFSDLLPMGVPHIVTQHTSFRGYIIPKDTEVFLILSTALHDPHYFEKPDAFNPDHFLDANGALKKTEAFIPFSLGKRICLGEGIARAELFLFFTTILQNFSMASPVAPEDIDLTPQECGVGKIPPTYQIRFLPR

[10] = Cytotoxicity against human HepG2 cells; format: toxicity, cell-based
[11] = Metabolic stability in pooled human liver microsomes assessed as half-life at 100 uM measured upto 120 mins by LC-MS/MS analysis; format: ADME, Microsome
[12] = Cytotoxicity against human A549 cells; format: toxicity, cell-based
[13] = target: Protein cereblon/Cyclin-dependent kinase 2 (Homo sapiens, UniProt P24941+Q96SW2); assay: PROTAC activity at CRBN/CDK2 (unknown origin) assessed as induction of CDK2 degradation; format: protein assay

Emax [1]	DC50 [2]	Activity [3]	IC50 (MIA PaCa-2)	IC50 (BXPC-3)	Activity [4]	DC50 [5]	IC50 (PANC-1)	Emax [6]	IC50 (ASPC1)	Activity [7]	Papp at 4 h, 500 µM [8]	Activity [9]	IC50 (Cytochrome P450 2B6)	half-life at 100 µM [11]	DC50 [13]	SMILES	CC50 [10]	CC50 [12]
78%	125 nM	inactive	3010 nM	3540 nM	inactive	321 nM	2810 nM	81%	3580 nM	–	–	–	–	–	–	O=C1CCC(N2C(=O)c3cccc(NCC(=O)N4CCC(C(=O)N5CCN(CCCn6cc(C7=C(c8c[nH]c9ccccc89)C(=O)NC7=O)c7ccccc76)CC5)CC4)c3C2=O)C(=O)N1 (centres undefined)	–	–
89%	56 nM	inactive	2430 nM	2870 nM	inactive	52 nM	2500 nM	88%	3870 nM	Active	69.2 ×10⁻⁶ cm/s	Active	–	–	–	O=C1CCC(N2C(=O)c3ccc(N4CCN(CCOCCC(=O)N5CCN(CCCn6cc(C7=C(c8c[nH]c9ccccc89)C(=O)NC7=O)c7ccccc76)CC5)CC4)cc3C2=O)C(=O)N1 (centres undefined)	–	–
–	–	–	7200 nM	9100 nM	–	–	8600 nM	–	6500 nM	–	–	–	–	–	–	O=C1Cc2c([nH]c3ccc(Br)cc23)-c2ccccc2N1 [KENPAULLONE]	–	–
–	–	–	–	–	–	–	–	–	–	–	4.08 ×10⁻⁶ cm/s	–	–	–	–	OC[C@@H](O)[C@@H](O)[C@H](O)[C@H](O)CO [MANNITOL]	–	–
–	–	–	–	–	–	–	–	–	–	–	–	–	12500 nM	–	–	CN[C@H]1CC[C@@H](c2ccc(Cl)c(Cl)c2)c2ccccc21 [SERTRALINE]	–	–
90%	152 nM	inactive	3120 nM	2890 nM	inactive	45 nM	2340 nM	78%	2560 nM	–	31.3 ×10⁻⁶ cm/s	–	–	–	–	CN(CCC(=O)N1CCC(NC(=O)c2c[nH]nc2NC(=O)c2c(Cl)cccc2Cl)CC1)C(=O)CNc1cccc2c1C(=O)N(C1CCC(=O)NC1=O)C2=O (centres undefined)	–	–
90%	98 nM	inactive	2190 nM	2210 nM	inactive	32 nM	1950 nM	89%	2250 nM	Active	38.6 ×10⁻⁶ cm/s	Active	–	–	–	O=C1CCC(N2C(=O)c3ccc(N4CCN(CCOCCC(=O)N5CCC(NC(=O)c6c[nH]nc6NC(=O)c6c(Cl)cccc6Cl)CC5)CC4)cc3C2=O)C(=O)N1 (centres undefined)	–	–
81%	96 nM	inactive	6610 nM	5980 nM	inactive	210 nM	5150 nM	87%	5560 nM	–	–	–	–	–	–	O=C1CCC(N2C(=O)c3cccc(NCCOCCOCCOCC(=O)N4CCN(CCCn5cc(C6=C(c7c[nH]c8ccccc78)C(=O)NC6=O)c6ccccc65)CC4)c3C2=O)C(=O)N1 (centres undefined)	–	–
–	–	–	–	–	–	–	–	–	–	–	–	–	–	57 min	–	CC(=O)c1c(C)c2cnc(Nc3ccc(N4CCNCC4)cn3)nc2n(C2CCCC2)c1=O [PALBOCICLIB]	8120 nM	7950 nM
92%	90 nM	inactive	3810 nM	3140 nM	inactive	36 nM	2750 nM	89%	3570 nM	–	61.2 ×10⁻⁶ cm/s	–	–	–	–	O=C1CCC(N2C(=O)c3cccc(NCCOCCOCCOCC(=O)N4CCC(NC(=O)c5c[nH]nc5NC(=O)c5c(Cl)cccc5Cl)CC4)c3C2=O)C(=O)N1 (centres undefined)	–	–
78%	220 nM	inactive	4670 nM	4870 nM	inactive	330 nM	5720 nM	75%	3350 nM	–	–	–	–	–	–	O=C1CCC(N2C(=O)c3cccc(NCCOCCOCCOCCOCCOCn4cc(CN5CCN(CCCn6cc(C7=C(c8c[nH]c9ccccc89)C(=O)NC7=O)c7ccccc76)CC5)nn4)c3C2=O)C(=O)N1 (centres undefined)	–	–
–	–	–	–	–	–	–	–	–	–	–	–	–	–	–	61 nM	Cc1cscc1C(=O)n1nc(Nc2ccc(S(=O)(=O)NCCOCc3cn(CCOCCOCCNc4cccc5c4C(=O)N(C4CCC(=O)NC4=O)C5=O)nn3)cc2)nc1N (centres undefined)	–	–

SMILES	Emax [1]	DC50 [2]	Activity [3]	IC50 (MIA PaCa-2)	IC50 (BXPC-3)	Activity [4]	DC50 [5]	IC50 (PANC-1)	Emax [6]	IC50 (ASPC1)	Activity [7]	Papp at 4 h, 500 µM [8]	Activity [9]	IC50 (Cytochrome P450 2B6)	half-life at 100 µM [11]	DC50 [13]	CC50 [10]	CC50 [12]
Cc1cc(=O)n(-c2ccccc2)n1C [ANTIPYRINE]	–	–	–	–	–	–	–	–	–	–	–	15.2 ×10⁻⁶ cm/s	–	–	–	–	–	–
